Species on record: Rattus norvegicus
Assay: Open TG-GATES - Regimen: Daily Repeat
Type: toxicity, organism-based, Sprague-Dawley
Set-up: regimen Daily Repeat, gender Male, age 6 weeks
Conditions: in vivo, po, 0 mg/kg, route gavage, dose level Control; for APTT / Bas / Eos / Fbg / Hb / Ht / Lym / MCH / MCHC / MCV / Mono / Neu / PT / Plat / RBC / Ret / WBC: tissue Blood; for KIDNEY_L / KIDNEY_R / KIDNEY_TOTAL: tissue Kidney; for LIVER: tissue Liver; for A/G / ALP / ALT / AST / BUN / CRE / Ca / Cl / DBIL / GLC / IP / K / LDH / Na / PL / RALB / TBIL / TC / TG / TP / gamma-GTP: tissue Plasma

CN1C(=O)OC(C)(C)C1=O [TRIMETHADIONE]
TERMINAL_BW (72 h, time 3 day): 243.9 g
APTT (72 h, time 3 day): 17 s
Bas (72 h, time 3 day): 0%
Eos (72 h, time 3 day): 0.8%
Fbg (72 h, time 3 day): 265 mg/dL
Hb (72 h, time 3 day): 13.7 g/dL
Ht (72 h, time 3 day): 41%
Lym (72 h, time 3 day): 79.8%
MCH (72 h, time 3 day): 21.4 pg
MCHC (72 h, time 3 day): 33.4%
MCV (72 h, time 3 day): 64.2 fL
Mono (72 h, time 3 day): 2.6%
Neu (72 h, time 3 day): 16.4%
PT (72 h, time 3 day): 13.3 s
Plat (72 h, time 3 day): 131 x10_4/uL
RBC (72 h, time 3 day): 639.2 x10_4/ul
Ret (72 h, time 3 day): 7.2%
WBC (72 h, time 3 day): 85.5 x10_2/uL
KIDNEY_L (72 h, time 3 day): 1 g
KIDNEY_R (72 h, time 3 day): 1 g
KIDNEY_TOTAL (72 h, time 3 day): 2 g
LIVER (72 h, time 3 day): 11.2 g
A/G (72 h, time 3 day): 0.8
ALP (72 h, time 3 day): 1967.6 IU/L
ALT (72 h, time 3 day): 47.4 IU/L
AST (72 h, time 3 day): 78 IU/L
BUN (72 h, time 3 day): 15 mg/dL
CRE (72 h, time 3 day): 0.2 mg/dL
Ca (72 h, time 3 day): 11.2 mg/dL
Cl (72 h, time 3 day): 106 meq/L
DBIL (72 h, time 3 day): 0.006 mg/dL
GLC (72 h, time 3 day): 180.6 mg/dL
IP (72 h, time 3 day): 7 mg/dL
K (72 h, time 3 day): 4.6 meq/L
LDH (72 h, time 3 day): 109.4 IU/L
Na (72 h, time 3 day): 141.6 meq/L
PL (72 h, time 3 day): 166.6 mg/dL
RALB (72 h, time 3 day): 2.6 g/dL
TBIL (72 h, time 3 day): 0.05 mg/dL
TC (72 h, time 3 day): 83.6 mg/dL
TG (72 h, time 3 day): 141.8 mg/dL
TP (72 h, time 3 day): 5.7 g/dL
gamma-GTP (72 h, time 3 day): 1 IU/L
TERMINAL_BW ([…], time 7 day): 282.3 g
TERMINAL_BW ([…], time 14 day): 333.6 g
TERMINAL_BW ([…], time 28 day): 429.2 g
APTT ([…], time 7 day): 17.7 s
Bas ([…], time 7 day): 0.6%
Eos ([…], time 7 day): 1%
Fbg ([…], time 7 day): 263.8 mg/dL
Hb ([…], time 7 day): 13.8 g/dL
Ht ([…], time 7 day): 41%
Lym ([…], time 7 day): 79.4%
MCH ([…], time 7 day): 21.4 pg
MCHC ([…], time 7 day): 33.6%
MCV ([…], time 7 day): 63.9 fL
Mono ([…], time 7 day): 2.4%
Neu ([…], time 7 day): 16.4%
PT ([…], time 7 day): 13.9 s
Plat ([…], time 7 day): 123.3 x10_4/uL
RBC ([…], time 7 day): 641.8 x10_4/ul
Ret ([…], time 7 day): 5.8%
WBC ([…], time 7 day): 89.3 x10_2/uL
APTT ([…], time 14 day): 19.5 s
Bas ([…], time 14 day): 0.4%
Eos ([…], time 14 day): 1.2%
Fbg ([…], time 14 day): 284.6 mg/dL
Hb ([…], time 14 day): 14.9 g/dL
Ht ([…], time 14 day): 43.9%
Lym ([…], time 14 day): 77.8%
MCH ([…], time 14 day): 20.8 pg
MCHC ([…], time 14 day): 33.9%
MCV ([…], time 14 day): 61.2 fL
Mono ([…], time 14 day): 2%
Neu ([…], time 14 day): 18.6%
PT ([…], time 14 day): 13.4 s
Plat ([…], time 14 day): 127.4 x10_4/uL
RBC ([…], time 14 day): 719 x10_4/ul
Ret ([…], time 14 day): 4.4%
WBC ([…], time 14 day): 99.3 x10_2/uL
APTT ([…], time 28 day): 17.5 s
Bas ([…], time 28 day): 0%
Eos ([…], time 28 day): 1.2%
Fbg ([…], time 28 day): 265.2 mg/dL
Hb ([…], time 28 day): 15.4 g/dL
Ht ([…], time 28 day): 44.4%
Lym ([…], time 28 day): 78.4%
MCH ([…], time 28 day): 19.8 pg
MCHC ([…], time 28 day): 34.8%
MCV ([…], time 28 day): 57.1 fL
Mono ([…], time 28 day): 1.6%
Neu ([…], time 28 day): 18.2%
PT ([…], time 28 day): 13.7 s
Plat ([…], time 28 day): 109.9 x10_4/uL
RBC ([…], time 28 day): 778.2 x10_4/ul
Ret ([…], time 28 day): 2.6%
WBC ([…], time 28 day): 114 x10_2/uL
KIDNEY_L ([…], time 7 day): 1.1 g
KIDNEY_R ([…], time 7 day): 1.1 g
KIDNEY_TOTAL ([…], time 7 day): 2.3 g
KIDNEY_L ([…], time 14 day): 1.2 g
KIDNEY_R ([…], time 14 day): 1.2 g
KIDNEY_TOTAL ([…], time 14 day): 2.4 g
KIDNEY_L ([…], time 28 day): 1.5 g
KIDNEY_R ([…], time 28 day): 1.5 g
KIDNEY_TOTAL ([…], time 28 day): 2.9 g
LIVER ([…], time 7 day): 12.5 g
LIVER ([…], time 14 day): 14.3 g
LIVER ([…], time 28 day): 16.8 g
A/G ([…], time 7 day): 0.8
ALP ([…], time 7 day): 1722.8 IU/L
ALT ([…], time 7 day): 38.2 IU/L
AST ([…], time 7 day): 67.4 IU/L
BUN ([…], time 7 day): 16.8 mg/dL
CRE ([…], time 7 day): 0.2 mg/dL
Ca ([…], time 7 day): 11 mg/dL
Cl ([…], time 7 day): 105.2 meq/L
DBIL ([…], time 7 day): 0.01 mg/dL
GLC ([…], time 7 day): 191.8 mg/dL
IP ([…], time 7 day): 6.9 mg/dL
K ([…], time 7 day): 4.1 meq/L
LDH ([…], time 7 day): 107.8 IU/L
Na ([…], time 7 day): 144 meq/L
PL ([…], time 7 day): 165.4 mg/dL
RALB ([…], time 7 day): 2.6 g/dL
TBIL ([…], time 7 day): 0.052 mg/dL
TC ([…], time 7 day): 85.6 mg/dL
TG ([…], time 7 day): 109 mg/dL
TP ([…], time 7 day): 5.8 g/dL
gamma-GTP ([…], time 7 day): 1 IU/L
A/G ([…], time 14 day): 0.8
ALP ([…], time 14 day): 1703.8 IU/L
ALT ([…], time 14 day): 42 IU/L
AST ([…], time 14 day): 73.8 IU/L
BUN ([…], time 14 day): 17.2 mg/dL
CRE ([…], time 14 day): 0.2 mg/dL
Ca ([…], time 14 day): 10.8 mg/dL
Cl ([…], time 14 day): 107.2 meq/L
DBIL ([…], time 14 day): 0.004 mg/dL
GLC ([…], time 14 day): 208.2 mg/dL
IP ([…], time 14 day): 6.8 mg/dL
K ([…], time 14 day): 3.9 meq/L
LDH ([…], time 14 day): 98.8 IU/L
Na ([…], time 14 day): 145.6 meq/L
PL ([…], time 14 day): 164.6 mg/dL
RALB ([…], time 14 day): 2.7 g/dL
TBIL ([…], time 14 day): 0.042 mg/dL
TC ([…], time 14 day): 80.8 mg/dL
TG ([…], time 14 day): 128.8 mg/dL
TP ([…], time 14 day): 6 g/dL
gamma-GTP ([…], time 14 day): 1 IU/L
A/G ([…], time 28 day): 0.8
ALP ([…], time 28 day): 1156.4 IU/L
ALT ([…], time 28 day): 35 IU/L
AST ([…], time 28 day): 62.6 IU/L
BUN ([…], time 28 day): 15 mg/dL
CRE ([…], time 28 day): 0.2 mg/dL
Ca ([…], time 28 day): 10.8 mg/dL
Cl ([…], time 28 day): 105.6 meq/L
DBIL ([…], time 28 day): 0.004 mg/dL
GLC ([…], time 28 day): 183.8 mg/dL
IP ([…], time 28 day): 6 mg/dL
K ([…], time 28 day): 4 meq/L
LDH ([…], time 28 day): 64.2 IU/L
Na ([…], time 28 day): 142.6 meq/L
PL ([…], time 28 day): 159.8 mg/dL
RALB ([…], time 28 day): 2.8 g/dL
TBIL ([…], time 28 day): 0.048 mg/dL
TC ([…], time 28 day): 73.6 mg/dL
TG ([…], time 28 day): 188.4 mg/dL
TP ([…], time 28 day): 6.3 g/dL
gamma-GTP ([…], time 28 day): 1 IU/L

From ChEMBL document CHEMBL3885861, “Open TG-GATES”
